Measured values taken from patent publication US12503475B2 (Centessa Pharmaceuticals (UK) Limited, priority 2020, dated 2025).

Molecular target: T1, human orexin type 2 receptor (hOX2R) (Homo sapiens, UniProt O43614)
T1 construct: expressed in transfected cells
T1 sequence (O43614 1-444): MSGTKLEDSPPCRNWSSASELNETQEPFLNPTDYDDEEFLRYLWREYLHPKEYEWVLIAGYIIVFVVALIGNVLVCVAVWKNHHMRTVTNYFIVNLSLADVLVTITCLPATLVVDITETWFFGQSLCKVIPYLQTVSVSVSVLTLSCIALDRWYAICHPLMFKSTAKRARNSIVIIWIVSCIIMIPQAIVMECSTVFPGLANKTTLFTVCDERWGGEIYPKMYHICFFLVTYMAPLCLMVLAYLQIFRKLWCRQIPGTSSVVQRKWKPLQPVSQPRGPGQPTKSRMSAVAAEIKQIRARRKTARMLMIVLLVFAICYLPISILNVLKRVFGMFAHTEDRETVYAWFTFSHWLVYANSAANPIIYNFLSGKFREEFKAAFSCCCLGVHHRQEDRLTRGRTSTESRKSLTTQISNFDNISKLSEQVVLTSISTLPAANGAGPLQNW
Experiment: Measurement of orexin type 2 receptor agonist activity (FLIPR calcium fluorescence)
Format: cell-based
Conditions: CHO cells expressing hOX2R, FLIPR calcium fluorescence; for EC50: read-out: hOx2 pEC50 (converted); for Emax: CHO, read-out: hOx2 Emax (%)
How it was run: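 Agonism was read as fluorescence in cells stably expressing human OX2R. E. is the response at 10 μM relative to orexin A as full agonist (100%).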

| EC50 [nM] | Emax [%] | SMILES |
| --- | --- | --- |
| 0.0794 to 1 | 90 to 100 | O=C(C1CCC1)N1CC2(CC2)C(NS(=O)(=O)CF)C1Cc1cccc(-c2ccccc2)c1F (racemic) [Compound 106, N-(5-5(cyclobutanecarbonyl)-6-((2-fluoro-[1,1′-biphenyl]-3-yl)methyl)-5-azaspiro[2.4]heptan-7-yl)-1-fluoromethanesulfonamide] |
| 1 to 10 | 90 to 100 | CS(=O)(=O)N[C@@H]1[C@H](Cc2cccc(-c3ccccc3)c2)N(C(=O)C23CC2C3)CC12CC2 (stereo partly drawn) [Compound 113, N-((6S,7S)-6-([1,1′-biphenyl]-3-ylmethyl)-5-(bicyclo[1.1.0]butane-1-carbonyl)-5-azaspiro[2.4]heptan-7-yl)methanesulfonamide] |
| 1 to 10 | 90 to 100 | O=C([C@H]1C[C@H](F)C1)N1CC2(CC2)[C@H](NS(=O)(=O)C(F)F)[C@@H]1Cc1cccc(-c2ccccc2)c1F [Compound 182, 1,1-difluoro-N-((6S,7S)-6-((2-fluoro-[1,1′-biphenyl]-3-yl)methyl)-5-((1r,3r)-3-fluorocyclobutane-1-carbonyl)-5-azaspiro[2.4]heptan-7-yl)methanesulfonamide] |
| 10 to 100 | 90 to 100 | CS(=O)(=O)N[C@@H]1[C@H](Cc2cccc(-c3ccccc3)c2)N(C(=O)[C@H](O)C(F)(F)F)CC12CC2 [Compound 299, N-((6S,7S)-6-([1,1′-biphenyl]-3-ylmethyl)-5-((S)-3,3,3-trifluoro-2-hydroxypropanoyl)-5-azaspiro[2.4]heptan-7-yl)methanesulfonamide] |
| 10 to 100 | 90 to 100 | CS(=O)(=O)N[C@@H]1[C@H](Cc2cccc(-c3ccccc3)c2F)N(C(=O)[C@H](O)C(F)F)CC12CC2 [Compound 351, N-((6S,7S)-5-((S)-3,3-difluoro-2-hydroxypropanoyl)-6-((2-fluoro-[1,1′-biphenyl]-3-yl)methyl)-5-azaspiro[2.4]heptan-7-yl)methanesulfonamide] |
| 10 to 100 | 90 to 100 | C[C@H]1C[C@@H]1S(=O)(=O)N[C@H]1[C@@H](Cc2cccc(-c3ccccc3)c2)N(C(=O)[C@H]2CCO2)CC12CC2 (relative stereo) [Compound 312, (1S*,2S*)-N-(6R,7R)-6-([1,1′-biphenyl]-3-ylmethyl)-5-((R)-oxetane-2-carbonyl)-5-azaspiro[2.4]heptan-7-yl)-2-methylcyclopropane-1-sulfonamide] |
| 1 to 10 | 90 to 100 | CC(C)C(=O)N1CC2(CC2)C(NS(=O)(=O)CF)C1Cc1cccc(-c2ccccc2)c1 (racemic) [Compound 36, N-(6-([1,1′-biphenyl]-3-ylmethyl)-5-isobutyryl-5-azaspiro[2.4]heptan-7-yl)-1-fluoromethanesulfonamide] |
| 1 to 10 | 90 to 100 | CS(=O)(=O)N[C@@H]1[C@H](Cc2cccc(-c3ccccc3)c2F)N(C(=O)NC[C@@H]2CCO2)CC12CC2 [Compound 333, (6S,7S)-6-((2-fluoro-[1,1′-biphenyl]-3-yl)methyl)-7-(methylsulfonamido)-N-(((S)-oxetan-2-yl)methyl)-5-azaspiro[2.4]heptane-5-carboxamide] |
| 1 to 10 | 90 to 100 | COCC1(C(=O)N2CC3(CC3)[C@H](NS(C)(=O)=O)[C@@H]2Cc2cccc(-c3ccccc3)c2F)CC1 [Compound 386, N-((6S,7S)-6-((2-fluoro-[1,1′-biphenyl]-3-yl)methyl)-5-(1-(methoxymethyl)cyclopropane-1-carbonyl)-5-azaspiro[2.4]heptan-7-yl)methanesulfonamide] |
| 1 to 10 | 90 to 100 | O=C([C@H]1CCO1)N1CC2(CC2)[C@H](NS(=O)(=O)C(F)F)[C@@H]1Cc1cccc(-c2ccccc2F)c1F [Compound 163, N-((6S,7S)-6-((2,2′-difluoro-[1,1′-biphenyl]-3-yl)methyl)-5-((R)-oxetane-2-carbonyl)-5-azaspiro[2.4]heptan-7-yl)-1,1-difluoromethanesulfonamide] |
| 0.0794 to 1 | 90 to 100 | C[C@H](CO)NC(=O)N1CC2(CC2)[C@H](NS(=O)(=O)C(F)F)[C@@H]1Cc1cccc(-c2ccccc2)c1F [Compound 364, (6S,7S)-7-((difluoromethyl)sulfonamido)-6-((2-fluoro-[1,1′-biphenyl]-3-yl)methyl)-N-((R)-1-hydroxypropan-2-yl)-5-azaspiro[2.4]heptane-5-carboxamide] |
| 10 to 100 | 90 to 100 | CC(C)(O)C(=O)N1CC2(CC2)[C@H](NS(=O)(=O)CF)[C@@H]1Cc1cc(F)cc(-c2cccc(F)c2)c1F [Compound 210, 1-fluoro-N-((6S,7S)-5-(2-hydroxy-2-methylpropanoyl)-6-((2,3′,5-trifluoro-[1,1′-biphenyl]-3-yl)methyl)-5-azaspiro[2.4]heptan-7-yl)methanesulfonamide] |
| 1 to 10 | 90 to 100 | CCS(=O)(=O)N[C@@H]1[C@H](Cc2cc(F)cc(-c3cc(F)cc(F)c3)c2F)N(C(=O)[C@H]2CCO2)CC12CC2 [Compound 407, N-((6S,7S)-5-((R)-oxetane-2-carbonyl)-6-((2,3′,5,5′-tetrafluoro-[1,1′-biphenyl]-3-yl)methyl)-5-azaspiro[2.4]heptan-7-yl)ethanesulfonamide] |
| 10 to 100 | 90 to 100 | CS(=O)(=O)N[C@@H]1[C@H](Cc2cccc(-c3ccccc3)c2F)N(C(=O)N2CC(F)(F)C2)CC12CC2 [Compound 87, N-((6S,7S)-5-(3,3-difluoroazetidine-1-carbonyl)-6-((2-fluoro-[1,1′-biphenyl]-3-yl)methyl)-5-azaspiro[2.4]heptan-7-yl)methanesulfonamide] |
| 1 to 10 | 90 to 100 | O=C(NCC(F)F)N1CC2(CC2)[C@H](NS(=O)(=O)C(F)F)[C@@H]1Cc1cccc(-c2ccccc2)c1F [Compound 165, (6S,7S)-N-(2,2-difluoroethyl)-7-((difluoromethyl)sulfonamido)-6-((2-fluoro-[1,1′-biphenyl]-3-yl)methyl)-5-azaspiro[2.4]heptane-5-carboxamide] |
| 1 to 10 | 90 to 100 | CCNC(=O)N1CC2(CC2)C(NS(C)(=O)=O)C1Cc1cccc(-c2ccccc2)c1F (racemic) [Compound 38, N-ethyl-6-((2-fluoro-[1,1′-biphenyl]-3-yl)methyl)-7-(methylsulfonamido)-5-azaspiro[2.4]heptane-5-carboxamide] |
| 1 to 10 | 90 to 100 | CC(C)S(=O)(=O)N[C@@H]1[C@H](Cc2cc(F)cc(-c3ccccc3)c2F)N(C(=O)[C@H]2CCO2)CC12CC2 [Compound 396] |
| 1 to 10 | 90 to 100 | O=C(NCC(F)F)N1CC2(CC2)[C@H](NS(=O)(=O)CF)[C@@H]1Cc1cc(F)cc(-c2ccccc2)c1F [Compound 191, (6S,7S)-6-((2,5-difluoro-[1,1′-biphenyl]-3-yl)methyl)-N-(2,2-difluoroethyl)-7-((fluoromethyl)sulfonamido)-5-azaspiro[2.4]heptane-5-carboxamide] |
| 0.0794 to 1 | 90 to 100 | O=C(NCCF)N1CC2(CC2)[C@H](NS(=O)(=O)CF)[C@@H]1Cc1cccc(-c2ccccc2)c1F [Compound 367, (6S,7S)-6-((2-fluoro-[1,1′-biphenyl]-3-yl)methyl)-N-(2-fluoroethyl)-7-((fluoromethyl)sulfonamido)-5-azaspiro[2.4]heptane-5-carboxamide] |
